# Test: Effect of peptides on incorporation of cholesterol (NBD-cholesterol) into mixed micelles
# Details: Table 3, effect of charge; peptides 1 mg/ml; BA-mix in PBS pH 6.5; micelles without peptide = 100%
# Experimental: To form mixed micelles in vitro, 0.1 mM lecithin, 0.05 mM monoolein, 0.1 mM oleic acid and 80 μM cholesterol are mixed in a test tube and dried under a stream of N2. After drying, a 2 mM bile acid mix (BA-mix) in PBS pH 6.5 is added to this lipid mixture. Fluorescent labelled cholesterol (NBD-cholesterol) is used to monitor the incorporation of cholesterol into the mixed micelles.
# For testing, peptides (1 mg/ml) are added to the BA-mix and then mixed with lipid-mixtures as described. The whole mixture is vortexed for 15 seconds, followed by an ultrasonic treatment in a waterbath for 30 minutes. From this mixture a sample is taken to measure total NBD-cholesterol concentration. The remaining micelle solution is centrifuged in a table-top ultracentrifuge at 50.000 g for 30 minutes at room temperature.
# After centrifugation, samples from the supernatant are taken for the determination of solubilized NBD-cholesterol, which indicates the amount of cholesterol incorporated into mixed micelles. The pellet containing crystallised cholesterol is discarded. NBD-cholesterol is measured at 375/465 nm using a fluorescence plate reader.
# Mixed micelle mixtures containing no peptides are used as control (100%). For each example the percentage of incorporated Cholesterol is calculated by dividing the amount of incorporated cholesterol for the tested composition by the amount of incorporated cholesterol in the control sample.
row,Substance,Incorporated CH (% control = 80 μM cholesterol)
1,EAEWEY [reference compound],81.3 % control
2,RRRRRR,14.8 % control
3,DDDDDD [reference compound],136.8 % control
4,KKKKKK,19.9 % control
5,RARWRY,19.3 % control
6,VEWEME [reference compound],68.4 % control
7,VRWRMR,26.2 % control

# Same assay, conditions: Table 4, effect of length; peptides 1 mg/ml; BA-mix in PBS pH 6.5; micelles without peptide = 100%
row,Substance,Incorporated CH (% control = 80 μM cholesterol)
1,RRRRRR,10.3 % control
2,RRRR,32.8 % control
3,"RRRRRRRR [octa-peptide RRRRRRRR, net charge +8]",8.8 % control

# Source: patent US20090104335A1, “Healthy Food Product” (priority 2006, published 2009)
